Assay results: patent US5770573A, “CS-1 peptidomimetics, compositions and methods of using the same” (Cytel Corporation, priority 1995, dated 1998)
Numbered stars: 1 amine (or outer) side, 2 acyl side, 3 side chain; on linkers, the order of the positions; unused ones are H or OH. Square brackets hold non-standard residues; d marks the D form. Peptide text beside a SMILES is read from it. * marks the point of attachment. Quinoline3carbonyl = O=C(c1cnc2ccccc2c1)*; Quinaldoyl = O=C(c1ccc2ccccc2n1)*; Cha = N[C@@H](CC1CCCCC1)C(=O)O; X8 = CCCCCCCCCCCCCCCCCCO*; Morpholide = C1CN(*)CCO1; Pyrrolidide = C1CCN(*)C1; X7 = O=C(CO*)OCc1ccccc1; PhAc = O=C(Cc1ccccc1)*; CO = O=C([*:1])[*:2]; Inp = O=C(O)C1CCNCC1; NHPh = c1ccc(N*)cc1

target: VLA-4 (Homo sapiens, UniProt P05556+P13612); assay: In vitro binding inhibition of 51Cr-labeled Jurkat cells to solid phase-bound CS-1 compound (SEQ ID NO:1); format: cell-based; parameters: inflammatory cells that contain the VLA-4 receptor [Jurkat cells; host or cells: Jurkat (human T lymphoblastic line); details: not given
Procedure, shortened: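 51Cr-labeled human Jurkat cells were preincubated with compound 30 min at about 22° C, then allowed to bind to wells coated with CS-1 peptide or CS-1-OVA for 30 min at 37° C. After washing, bound cells were lysed with SDS and counted. IC50 is the concentration halving binding, normalized to SEQ ID NO: 3.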

VLA-4, sequence (P13612 34-1032): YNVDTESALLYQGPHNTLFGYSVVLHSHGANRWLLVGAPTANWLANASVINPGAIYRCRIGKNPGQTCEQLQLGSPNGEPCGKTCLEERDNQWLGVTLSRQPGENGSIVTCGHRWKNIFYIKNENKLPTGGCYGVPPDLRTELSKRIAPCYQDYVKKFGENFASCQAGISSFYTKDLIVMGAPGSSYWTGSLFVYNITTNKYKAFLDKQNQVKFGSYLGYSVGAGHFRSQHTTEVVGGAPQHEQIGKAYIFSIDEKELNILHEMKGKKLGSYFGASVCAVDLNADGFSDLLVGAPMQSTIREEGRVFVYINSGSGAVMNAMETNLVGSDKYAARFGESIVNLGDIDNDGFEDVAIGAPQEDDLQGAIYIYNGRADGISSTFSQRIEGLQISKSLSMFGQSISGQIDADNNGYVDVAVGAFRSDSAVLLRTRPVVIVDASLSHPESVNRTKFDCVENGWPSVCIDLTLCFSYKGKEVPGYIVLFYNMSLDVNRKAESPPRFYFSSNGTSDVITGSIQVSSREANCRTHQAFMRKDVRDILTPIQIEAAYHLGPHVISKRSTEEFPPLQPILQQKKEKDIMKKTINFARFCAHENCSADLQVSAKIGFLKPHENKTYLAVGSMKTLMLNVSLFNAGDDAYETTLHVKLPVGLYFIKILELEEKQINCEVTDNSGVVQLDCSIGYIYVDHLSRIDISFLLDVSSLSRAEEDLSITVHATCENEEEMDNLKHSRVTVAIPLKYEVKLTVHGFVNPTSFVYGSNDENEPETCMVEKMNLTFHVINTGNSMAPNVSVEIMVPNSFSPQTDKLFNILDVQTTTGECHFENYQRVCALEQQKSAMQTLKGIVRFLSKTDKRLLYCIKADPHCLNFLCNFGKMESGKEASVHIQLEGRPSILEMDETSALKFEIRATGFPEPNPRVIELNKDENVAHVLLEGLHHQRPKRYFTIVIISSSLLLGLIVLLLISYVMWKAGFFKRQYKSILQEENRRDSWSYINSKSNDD
VLA-4, sequence (P05556 21-798): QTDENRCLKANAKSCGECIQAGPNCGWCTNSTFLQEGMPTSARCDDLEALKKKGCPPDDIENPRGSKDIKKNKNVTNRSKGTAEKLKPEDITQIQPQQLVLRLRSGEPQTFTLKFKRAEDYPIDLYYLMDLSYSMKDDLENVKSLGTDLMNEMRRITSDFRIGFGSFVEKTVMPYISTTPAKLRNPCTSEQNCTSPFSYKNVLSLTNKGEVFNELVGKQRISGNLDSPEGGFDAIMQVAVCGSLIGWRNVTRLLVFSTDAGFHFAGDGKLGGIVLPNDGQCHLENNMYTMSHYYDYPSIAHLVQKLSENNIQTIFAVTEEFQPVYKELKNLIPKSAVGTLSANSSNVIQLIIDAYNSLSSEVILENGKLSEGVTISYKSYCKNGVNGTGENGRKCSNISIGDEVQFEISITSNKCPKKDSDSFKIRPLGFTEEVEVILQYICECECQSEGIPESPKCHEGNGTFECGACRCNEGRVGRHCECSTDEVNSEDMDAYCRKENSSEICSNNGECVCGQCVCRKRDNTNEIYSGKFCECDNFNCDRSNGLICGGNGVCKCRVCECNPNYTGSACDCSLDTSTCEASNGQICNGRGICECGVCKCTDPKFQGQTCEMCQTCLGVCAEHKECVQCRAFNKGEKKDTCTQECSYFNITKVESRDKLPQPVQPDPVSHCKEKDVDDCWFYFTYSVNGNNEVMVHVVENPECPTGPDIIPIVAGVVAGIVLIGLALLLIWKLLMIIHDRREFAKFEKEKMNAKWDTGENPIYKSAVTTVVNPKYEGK

Compound | Relative Potency
CC(C)CC(C(=O)NCc1ccccc1)C(=O)N[C@@H](CC(=O)O)C(=O)N[C@@H](Cc1ccccc1)C(=O)N1CCC[C@@H]1C(N)=O (some centres unmarked) [1034.01] | 1.96
CC(=O)N[C@@H](CO)C(=O)N[C@@H](Cc1ccccc1)C(=O)N[C@@H](CC(=O)O)C(=O)N[C@@H](Cc1ccccc1)C(=O)N[C@@H](CO)C(N)=O [951.46] (Ac-SFDFS-NH2) | .22
CC(C)C[C@H](N)C(=O)N[C@@H](CC(=O)O)C(=O)N[C@@H](Cc1ccccc1)C(N)=O [926.31] (H-Leu-Asp-Phe-NH2) | 0.01
COc1ccc(CCCC(=O)N[C@@H](CC(=O)O)C(=O)N[C@@H](Cc2ccccc2)C(=O)N2CCC[C@@H]2C(N)=O)cc1OC [1056.02] | 0
CC(C)C[C@H](NC(=O)c1cnc2ccccc2c1)C(=O)N[C@@H](CC(=O)O)C(=O)N[C@@H](Cc1ccccc1)C(=O)N1CCC[C@@H]1C(N)=O [951.05] (Quinoline3carbonyl-LDF[dP]-NH2) | 56.3
CC(C)C[C@H](NC(=O)CCc1ccccc1)C(=O)N[C@@H](CC(=O)O)C(=O)N[C@H](C(=O)N1CCC[C@@H]1C(N)=O)C(C)C [896.40] | 5.32
CC(C)C[C@H](NC(=O)c1ccc2ccccc2n1)C(=O)N[C@@H](CC(=O)O)C(=O)N[C@@H](Cc1ccccc1)C(=O)N1CCC[C@@H]1C(N)=O [951.06] (Quinaldoyl-LDF[dP]-NH2) | 8.97
CC(C)COC(=O)N[C@@H](CC(=O)O)C(=O)N[C@@H](Cc1ccccc1)C(=O)N1CCCCC1 [1027.04] | 0
CC(C)C[C@H](NC(=O)Nc1ccccc1)C(=O)N[C@@H](CC(=O)O)C(=O)N[C@@H](Cc1ccccc1)C(=O)N1CCC[C@@H]1C(N)=O [896.62] ({NHPh-CO}-LDF[dP]-NH2) | 257
CC(C)C[C@H](NC(=O)c1ccc2ccccc2c1)C(=O)N[C@@H](CC(=O)O)C(=O)N[C@H](C(=O)N1CCC[C@@H]1C(N)=O)C(C)C [896.44] | 2.5
CC(C)C[C@H](NC(=O)c1cccnc1)C(=O)N[C@@H](CC(=O)O)C(=O)N[C@H](C(=O)N1CCC[C@@H]1C(N)=O)C(C)C [896.42] | 38.1
CC[C@H](C)[C@H](N)C(=O)N[C@@H](CC1CCCCC1)C(=O)N[C@@H](CC(=O)O)C(=O)N[C@H](C(=O)N1CCC[C@H]1C(N)=O)C(C)C [926.08] (H-I[Cha]DVP-NH2) | .47
O=C(O)C[C@H](NC(=O)N(Cc1ccccc1)Cc1ccccc1)C(=O)N[C@@H](Cc1ccccc1)C(=O)N1CCCCC1 [1027.03] | 0
NC(=O)[C@H]1CCCN1C(=O)[C@H](Cc1ccccc1)NC(=O)[C@H](CC(=O)O)NC(=O)CC12CC3CC(CC(C3)C1)C2 [1056.13] | 0
CC(C)C[C@H](NC(=O)c1ccncc1)C(=O)N[C@@H](CC(=O)O)C(=O)N[C@@H](Cc1ccc(O)cc1)C(=O)N1CCCCC1 [1045.01] | 23.8
CC(C)C[C@@H](C(=O)N[C@@H](CC(=O)O)C(=O)N[C@@H](Cc1ccccc1)C(=O)N1CCCCC1)N1C(=O)N[C@@H](Cc2ccccc2)C1=O [1047.06] | 6.26

same assay, conditions: binding inhibition potency relative to standard compound of SEQ ID NO:3 = 1 (normalized IC50); about one-tenth or less assigned zero

Compound | Relative Potency
CC(C)C[C@H](NC(=O)Cc1ccccc1)C(=O)NC(CC(=O)O)(CC(=O)O)C(=O)N[C@@H](Cc1ccccc1)C(=O)N1CCCCC1 [1026.01] | 0
CC(C)C[C@H](NC(=O)c1ccccc1)C(=O)N[C@@H](CC(=O)O)C(=O)N[C@H](C(=O)N1CCC[C@@H]1C(N)=O)C(C)C [926.02] | 9.6
CC(C)C[C@@H](CN[C@@H](CC(=O)O)C(=O)N[C@@H](Cc1ccccc1)C(=O)N1CCCCC1)NC(=O)Cc1ccccc1 [1041.01] | 0
CC(C)C[C@H](NC(=O)Cc1ccccc1)C(=O)N[C@@H](CC(=O)O)C(=O)N[C@H](C(=O)N1CCC[C@@H]1C(N)=O)C(C)C [896.39] | 47.5
CC(C)C[C@H](NC(=O)Cc1ccccc1)C(=O)N[C@@H](CP(=O)(O)O)C(=O)N[C@@H](Cc1ccccc1)C(=O)N1CCCCC1 [1026.07] | 0
CC(C)C[C@H](NC(=O)Cc1ccccc1)C(=O)N[C@@H](CC(=O)O)C(=O)N[C@@H](Cc1ccccc1)C(=O)N1CCCC1 [951.15] (PhAc-Leu-Asp-Phe-Pyrrolidide) | 121
CC(C)C[C@H](NC(=O)Cc1ccccc1)C(=O)N[C@@H](CC(=O)O)C(=O)NN(Cc1ccccc1)C(=O)C1CCCC1 [997.15] | 1.28
CC(C)C[C@H](NC(=O)Cc1ccccc1)C(=O)N[C@@H](CC(=O)O)C(=O)N[C@H]1Cc2ccccc2[C@H]2CCCCN2C1=O [1026.05] | 50.1
CC(C)C[C@H](NC(=O)Cc1ccccc1)C(=O)N[C@@H](CC(=O)O)C(=O)NNC(=O)OC(C)(C)C [997.13] | 1.57
CC(C)C[C@H](NC(=O)Cc1ccccc1)C(=O)N[C@@H](CC(=O)O)C(=O)N[C@@H](Cc1ccc(O)cc1)C(=O)N1CCOCC1 [1045.02] (PhAc-Leu-Asp-Tyr-Morpholide) | 313
CC(C)C[C@H](NC(=O)Cc1ccccc1)C(=O)N[C@@H](CC(=O)O)C(=O)N[C@@H](CO)C(=O)N1CCC[C@@H]1C(N)=O [1042.23] (PhAc-LDS[dP]-NH2) | 33.2
CC(C)C[C@H](NC(=O)Cc1ccccc1)C(=O)N[C@@H](CC(=O)O)C(=O)N[C@@H](Cc1ccccc1)C(=O)N1CCC(C(=O)O)CC1 [1111.04] (PhAc-LDF[Inp]-OH) | 836
CC(C)C[C@H](NC(=O)Cc1ccccc1)C(=O)N[C@@H](CC(=O)O)C(=O)NC1Cc2ccccc2N(CC(N)=O)C1=O (some centres unmarked) [997.11] | 44.8
CC(C)C[C@H](NC(=O)Cc1ccccc1)C(=O)N[C@@H](CC(=O)O)C(=O)N[C@@H](CO)C(=O)N1CCC[C@@H]1C(N)=O [896.72] (PhAc-LDS[dP]-NH2) | 16.9
CC(C)C[C@H](NC(=O)Cc1ccccc1)C(=O)N[C@@H](CC(=O)O)C(=O)N[C@@H](Cc1ccc(O)cc1)C(=O)N1CCC[C@H]1C(N)=O [1036.01] (PhAc-LDYP-NH2) | 405
COc1ccccc1N1CC[C@H](NC(=O)[C@H](CC(=O)O)NC(=O)[C@H](CC(C)C)NC(=O)Cc2ccccc2)C1=O [1057.04] | 3.13
CC(=O)N[C@@H](CC(C)C)C(=O)N[C@@H](CC(=O)O)C(=O)N[C@H](C(N)=O)C(C)C [926.30] (Ac-Leu-Asp-Val-NH2) | .63
CC(C)C[C@H](NC(=O)Cc1ccccc1)C(=O)N[C@@H](CC(=O)O)C(=O)NC1CCCCN(CC(N)=O)C1=O (some centres unmarked) [1057.06] | 97

same assay, conditions: relative to SEQ ID NO:3 = 1; potency before the prodrug compound is enzymatically converted to an active form

Compound | Relative Potency (prodrug compound)
CCCCCCCCCCCCCCCCCCOC(=O)C[C@H](NC(=O)[C@H](CC(C)C)NC(=O)Cc1ccccc1)C(=O)N[C@@H](Cc1ccccc1)C(=O)N1CCC[C@@H]1C(N)=O [1068.12] (PhAc-LD(X8)F[dP]-NH2) | 0
CCCCCCCCCC(=O)OC1CCN(C(=O)[C@H](Cc2ccccc2)NC(=O)[C@H](CC(=O)O)NC(=O)[C@H](CC(C)C)NC(=O)Cc2ccccc2)CC1 [1068.06] | .63
CC(C)C[C@H](NC(=O)Cc1ccccc1)C(=O)N[C@@H](CC(=O)OCC(=O)OCc1ccccc1)C(=O)N[C@@H](Cc1ccccc1)C(=O)N1CCC[C@@H]1C(N)=O [1067.01] (PhAc-LD(X7)F[dP]-NH2) | .97
CCOC(=O)C[C@H](NC(=O)[C@H](CC(C)C)NC(=O)Cc1ccccc1)C(=O)N[C@@H](Cc1ccccc1)C(=O)N1CCC[C@@H]1C(N)=O [1190.01] (PhAc-LD(OEt)F[dP]-NH2) | 0
